# Tests used:
# CB1 [1] = test: qRT-PCR gene expression of CB1; assay type: cell-based, human; details: HaCaT cells, half-IC50 dose, 24 h, vs. control
# Method: (§1) The HaCaT cells were seeded into 6-well plates at a density of 4 × 10^4 per well, incubated overnight and then treated with the selected pCBs (CBG (6.0 µM), CBC (4.0 µM), THCV (9.0 µM) and CBGA (13.0 µM)) for 24 h. The cell pellets were collected and RT-PCR reactions were performed using the RevertAid H Minus First Strand cDNA Synthesis Kit. The relative abundance was assessed via RT quantitative PCR (RT-qPCR) using the SensiFAST SYBR Lo-ROX Kit in an Applied Biosystems 7500 Fast Real-Time PCR System (Life Technologies). To provide the precise quantification of the initial target in each PCR reaction, the amplification plot was examined, as well as the point of early log phase of the product accumulation, which was defined by assigning a fluorescence threshold above the background that was defined as the threshold cycle number or “Ct. Differences” in threshold cycle number that was used to quantify the relative amount of the PCR targets that were contained within each tube. After PCR, a dissociation curve (melting curve) was constructed in the range of 60 °C to 95 °C [62] to evaluate the specificity of the amplification products. The relative expression of the different amplicons was calculated using the delta–delta Ct (ΔΔCt) method and then converted into the relative expression ratio (2^−ΔΔCt) for statistical analysis. All data were normalized to the endogenous reference genes β-actin and glyceraldehyde-3-phosphate dehydrogenase. The specific primers (Table 5) that were used were designed and ordered from Integrated DNA Technologies (IDT; Coralville, IA, USA) with the following sequences: […]
# CB2 [2] = test: qRT-PCR gene expression of CB2; assay type: cell-based, human; details: HaCaT cells, half-IC50 dose, 24 h, vs. control
# Method: as §1
# PPARγ = test: qRT-PCR gene expression of PPARγ; assay type: cell-based, human; details: HaCaT cells, half-IC50 dose, 24 h, vs. control
# Method: as §1
# CB2 [3] = test: Western blot protein expression of CB2; assay type: cell-based, human; details: HaCaT cells, half-IC50 dose, 24 h, vs. control
# Method: (§2) The HaCaT cells were seeded into 6-well plates at a density of 4 × 10^4 per well, incubated overnight and then treated with the selected pCBs (6.0 µM of CBG, 4.0 µM of CBC, 9.0 µM of THCV and 13.0 µM of CBGA) for 24 h. The cell pellets were collected and then lysed in an ice-cold lysis buffer (10 mM of EDTA, 50 mM of pH 7.4 Tris–HCl, 150 mM of sodium chloride, 1% Triton-X-100, 2 mM of phenylmethylsulfonyl fluoride, 2 mM of sodium orthovanadate, […] of leupeptin and […] of aprotinin). The amount of protein was determined using the Bio-Rad Protein assay (Bio-Rad Laboratories, Hemel Hempstead, UK). An equal amount of protein (60 µg) was loaded onto 10% sodium dodecyl sulfate–polyacrylamide gels and blotted onto polyvinylidene fluoride sheets (Amersham Biosciences, Piscataway, NJ, USA). The membranes were blocked with dried 5% non-fat milk for 1 h and then incubated with suitable primary antibodies. Detection was performed using Azure Biosystems c400 (Dublin, CA, USA). The membranes were stripped using the Restore Western Blot Stripping Buffer from Thermo Fisher Scientific (Waltham, MA, USA) for 30 min under agitation at room temperature, according to the manufacturer’s instructions. The primary antibodies (Table 6) that were used were obtained from the following sources: […]
# PPARα = test: Western blot protein expression of PPARα; assay type: cell-based, human; details: HaCaT cells, half-IC50 dose, 24 h, vs. control
# Method: as §2
# NAPE-PLD = test: Western blot protein expression of NAPE-PLD; assay type: cell-based, human; details: HaCaT cells, half-IC50 dose, 24 h, vs. control
# Method: as §2
# FAAH = test: Western blot protein expression of FAAH; assay type: cell-based, human; details: HaCaT cells, half-IC50 dose, 24 h, vs. control
# Method: as §2
# MAGL [4] = test: MAGL activity assay in membranes of treated cells; assay type: cell-based, human; details: HaCaT cells, half-IC50 amount, 24 h, vs. control
# Method: MAGL Assay: The HaCaT cells were seeded into 6-well plates at a density of 4 × 10^4 per well, incubated overnight and then treated with the selected pCBs (6.0 µM of CBG, 4.0 µM of CBC, 9.0 µM of THCV and 13.0 µM of CBGA) for 24 h. The cell pellets were collected and MAGL activity was determined using membranes that were isolated from these cells using the synthetic substrate arachidonoyl-1-thio-glycerol (200 μM) in 10 mM of Tris and 1 mM of EDTA pH 7.2 at 4 °C for 15 min [68]. The MAGL inhibitor JZL184 (4 μM), which was purchased from Sigma-Aldrich (St. Louis, MO, USA), was used to fully erase the enzyme activity as a control.
# human TRPV1 = system: human TRPV1; design: method as in PMID 21175579; details: over-expressed by HEK-293 cells; ref [41]; cited from earlier work
# CB1 [5] = test: Western blot protein expression of CB1; assay type: cell-based, human; details: HaCaT cells, half-IC50 dose, 24 h, vs. control
# Method: as §2
# DAGLα = test: Western blot protein expression of DAGLα; assay type: cell-based, human; details: HaCaT cells, half-IC50 dose, 24 h, vs. control
# Method: as §2
# MAGL [6] = test: Western blot protein expression of MAGL; assay type: cell-based, human; details: HaCaT cells, half-IC50 dose, 24 h, vs. control
# Method: as §2
# CB1 [7] = details: in vivo and in vitro; ref [53]; cited from earlier work
SMILES,Gene Expression CB1 (CB1 [1]),gene expression of CB1 (in words) (CB1 [1]),gene expression of CB2 (in words) (CB2 [2]),Gene Expression PPARγ (PPARγ),gene expression of PPARγ (in words) (PPARγ),CB2 protein expression (in words) (CB2 [3]),Protein Expression CB2 (CB2 [3]),PPARα protein expression (in words) (PPARα),Protein Expression PPARα (PPARα),NAPE-PLD protein expression (in words) (NAPE-PLD),FAAH protein expression (in words) (FAAH),activity of MAGL (MAGL [4]),effectiveness in human TRPV1 (human TRPV1),Protein Expression NAPE-PLD (NAPE-PLD),CB1 protein expression (in words) (CB1 [5]),Protein Expression CB1 (CB1 [5]),DAGLα protein expression (in words) (DAGLα),Protein Expression DAGLα (DAGLα),MAGL protein expression (in words) (MAGL [6]),Protein Expression MAGL (MAGL [6]),further results
"CCCCCc1cc(O)c2c(c1)OC(C)(CCC=C(C)C)C=C2 (stereo not shown) [CBC, cannabichromene]",↓++++,significantly downregulated,significantly downregulated,↓++,reduced,reducing,↓+,significantly reduced,↓++,significantly increased,significantly increased,significantly increased,to a lesser extent,–,–,–,–,–,–,–,Gene Expression CB2 (CB2 [2]): ↓++
"CCCCCc1cc(O)c(C/C=C(\C)CCC=C(C)C)c(O)c1 [CBG, cannabigerol]",↑++++,significantly upregulate,significantly upregulate,–,–,reducing,↓+,–,–,significantly increased,–,significantly increased,high effectiveness,↑++++,–,–,–,–,–,–,–
"CCCCCc1cc(O)c(C/C=C(\C)CCC=C(C)C)c(O)c1C(=O)O [CBGA, cannabigerolic acid]",–,–,–,–,–,reducing,↓++++,significantly reduced,↓++++,significantly increased,significantly increased,significantly increased,–,NAPE-PLD ↑++++ FAAH ↑++++ DAGLα ↑++++ MAGL ↑++++,significantly reduced,↓++++,increased,NAPE-PLD ↑++++ FAAH ↑++++ DAGLα ↑++++ MAGL ↑++++,increased,NAPE-PLD ↑++++ FAAH ↑++++ DAGLα ↑++++ MAGL ↑++++,Protein Expression FAAH (FAAH): NAPE-PLD ↑++++ FAAH ↑++++ DAGLα ↑++++ MAGL ↑++++
"CCCc1cc(O)c2c(c1)OC(C)(C)[C@@H]1CCC(C)=C[C@@H]21 [THCV, Δ^9-tetrahydrocannabivarin]",–,–,–,↓++++,significantly reduced,reducing,↓+++,significantly reduced,↓++,significantly increased,–,significantly increased,high effectiveness,↑++++,significantly reduced,↓+,increased,↑+++,increased,↑++++,activity at CB1 (CB1 [7]): CB1 antagonist

# From article PMC9145865, “Effects of Rare Phytocannabinoids on the Endocannabinoid System of Human Keratinocytes” (International Journal of Molecular Sciences, 2022)
